Source: patent US8192962B2, “Processes for detecting toxic substances” (Daikin Industries, Ltd., priority 2001, dated 2012)

Tested on: Mitochondria-located protein genes
Assay: DNA chip mRNA expression in yeast, mitochondria-located protein genes (Table 2)
Type: cell-based, Saccharomyces cerevisiae S288C
Settings: cells incubated two hours with the chemical substance
Protocol: Yeast (Saccharomyces cerevisiae S288C (α SUC2mal mel gap2 CUP1)) were incubated at 25° C. on YPD medium (yeast extract 1%, polypepton 2%, glucose 2%). One of toxic chemical substances was added to the cells at logarithmic growth phase, and the cells were further incubated for two hours. Cells were cultured without any chemical substance in the same condition, and were used as control. Concentrations of the chemical substances were defined to inhibit the growth of the yeast but not lead to death.
After completion of the incubation, the culture was centrifuged to collect the cells. To the cells, sodium acetate buffer (50 mM sodium acetate, 10 mM EDTA, 1% SDS) was added, and the mixture was shaken at 65° C. for five minutes, followed by returning to room temperature, and obtaining the supernatant, of which the procedures were repeated two times. To the supernatant, ½ amount of a solution of phenol/chloroform was added, and the mixture was centrifuged to give a supernatant, which was added with an equal amount of chloroform, and the mixture was centrifuged to give a supernatant. To the supernatant, an equal amount of isopropanol containing 0.3 M sodium acetate was added, and the mixture was allowed to stand at room temperature for 30 minutes, after which the mixture was centrifuged to give a sediment of the whole RNAs. Seventy % ethanol was added to the sediment, and the mixture was again centrifuged to give a sediment, which was then dried and dissolved in water. mRNA was isolated from the whole RNAs as followings. In view of the fact that a poly A chain is attached to the 3′ terminus of mRNA, a polynucleotide having a poly T structure which was immobilized on the surface of latex beads was used to trap the mRNA, and then the mRNA was washed and eluted with spine column (Oligotex-dT30<Super>mRNA Purification Kit, Takara). Reverse transcription of the mRNA was conducted with a reverse transcriptase (Super Script II Reverse Transcriptase; catalogue No. 18064-014, GibcoBRL) using fluorescence-labeled nucleotides to give cDNAs that were introduced with Cy3-dUTP or Cy5-dUTP during the reverse transcription.
The labeled cDNAs were dissolved in TE buffer (10mM Tris-HCl/1 mM EDTA, pH8.0), and the solution was dropped on the DNA chip containing the whole genes of yeast (DNA Chip Research Inc. Japan) so that the cDNAs were hybridized on the DNA chip at 65° C. for over 12 hours. The fluoresces intensity of the DNA chip was read with a scanner, and the ratio relative to the fluorescence intensity resulting from the absence of chemical substance was estimated as the following, which is shown in Tables 1 to 9: […]

Q: Cl[C@H]1[C@H](Cl)[C@@H](Cl)[C@@H](Cl)[C@H](Cl)[C@H]1Cl [(7), γ-hexachlorocyclohexane] was tested. Which “The level of expressed mRNA in the presence of chemical substance/The level of expressed mRNA in the absence of chemical substance” value (yeast gene YJR121W) did it give?
A: 1.0

Q: What about the “The level of expressed mRNA in the presence of chemical substance/The level of expressed mRNA in the absence of chemical substance” value (yeast gene YKL003C) of the same compound?
A: 1.4

Q: What about the “The level of expressed mRNA in the presence of chemical substance/The level of expressed mRNA in the absence of chemical substance” value (yeast gene YKL016C) of the same compound?
A: 1.5

Q: What about the “The level of expressed mRNA in the presence of chemical substance/The level of expressed mRNA in the absence of chemical substance” value (yeast gene YKL141W) of the same compound?
A: 0.5

Q: What about the “The level of expressed mRNA in the presence of chemical substance/The level of expressed mRNA in the absence of chemical substance” value (yeast gene YKL142W) of the same compound?
A: 6.9

Q: And the “The level of expressed mRNA in the presence of chemical substance/The level of expressed mRNA in the absence of chemical substance” value (yeast gene YKL148C)?
A: 0.6

Q: And the “The level of expressed mRNA in the presence of chemical substance/The level of expressed mRNA in the absence of chemical substance” value (yeast gene YKL170W)?
A: 1.5

Q: And the “The level of expressed mRNA in the presence of chemical substance/The level of expressed mRNA in the absence of chemical substance” value (yeast gene YKL194C)?
A: 2.1

Q: What about the “The level of expressed mRNA in the presence of chemical substance/The level of expressed mRNA in the absence of chemical substance” value (yeast gene YKR066C) of the same compound?
A: 0.5

Q: What about the “The level of expressed mRNA in the presence of chemical substance/The level of expressed mRNA in the absence of chemical substance” value (yeast gene YLL041C) of the same compound?
A: 0.3

Q: What about the “The level of expressed mRNA in the presence of chemical substance/The level of expressed mRNA in the absence of chemical substance” value (yeast gene YLR038C) of the same compound?
A: 1.0

Q: What about the “The level of expressed mRNA in the presence of chemical substance/The level of expressed mRNA in the absence of chemical substance” value (yeast gene YLR259C) of the same compound?
A: 1.8

Q: What about the “The level of expressed mRNA in the presence of chemical substance/The level of expressed mRNA in the absence of chemical substance” value (yeast gene YLR295C) of the same compound?
A: 1.1

Q: And the “The level of expressed mRNA in the presence of chemical substance/The level of expressed mRNA in the absence of chemical substance” value (yeast gene YLR304C)?
A: 0.6

Q: And the “The level of expressed mRNA in the presence of chemical substance/The level of expressed mRNA in the absence of chemical substance” value (yeast gene YLR348C)?
A: 0.9

Q: What about the “The level of expressed mRNA in the presence of chemical substance/The level of expressed mRNA in the absence of chemical substance” value (yeast gene YML054C) of the same compound?
A: 1.2

Q: What about the “The level of expressed mRNA in the presence of chemical substance/The level of expressed mRNA in the absence of chemical substance” value (yeast gene YML120C) of the same compound?
A: 0.8

Q: What about the “The level of expressed mRNA in the presence of chemical substance/The level of expressed mRNA in the absence of chemical substance” value (yeast gene YML129C) of the same compound?
A: 1.8

Q: And the “The level of expressed mRNA in the presence of chemical substance/The level of expressed mRNA in the absence of chemical substance” value (yeast gene YMR023C)?
A: 1.9

Q: What about the “The level of expressed mRNA in the presence of chemical substance/The level of expressed mRNA in the absence of chemical substance” value (yeast gene YMR035W) of the same compound?
A: 2.3

Q: And the “The level of expressed mRNA in the presence of chemical substance/The level of expressed mRNA in the absence of chemical substance” value (yeast gene YMR083W)?
A: 1.7

Q: And the “The level of expressed mRNA in the presence of chemical substance/The level of expressed mRNA in the absence of chemical substance” value (yeast gene YMR089C)?
A: 1.2

Q: And the “The level of expressed mRNA in the presence of chemical substance/The level of expressed mRNA in the absence of chemical substance” value (yeast gene YMR152W)?
A: 0.8

Q: And the “The level of expressed mRNA in the presence of chemical substance/The level of expressed mRNA in the absence of chemical substance” value (yeast gene YMR203W)?
A: 0.8

Q: What about the “The level of expressed mRNA in the presence of chemical substance/The level of expressed mRNA in the absence of chemical substance” value (yeast gene YMR267W) of the same compound?
A: 1.2

Q: What about the “The level of expressed mRNA in the presence of chemical substance/The level of expressed mRNA in the absence of chemical substance” value (yeast gene YNL055C) of the same compound?
A: 1.2

Q: What about the “The level of expressed mRNA in the presence of chemical substance/The level of expressed mRNA in the absence of chemical substance” value (yeast gene YNL071W) of the same compound?
A: 1.4

Q: And the “The level of expressed mRNA in the presence of chemical substance/The level of expressed mRNA in the absence of chemical substance” value (yeast gene YNL073W)?
A: 1.1

Q: What about the “The level of expressed mRNA in the presence of chemical substance/The level of expressed mRNA in the absence of chemical substance” value (yeast gene YNL104C) of the same compound?
A: 0.6

Q: What about the “The level of expressed mRNA in the presence of chemical substance/The level of expressed mRNA in the absence of chemical substance” value (yeast gene YNL256W) of the same compound?
A: 0.6

Q: What about the “The level of expressed mRNA in the presence of chemical substance/The level of expressed mRNA in the absence of chemical substance” value (yeast gene YOL096C) of the same compound?
A: 1.7

Q: And the “The level of expressed mRNA in the presence of chemical substance/The level of expressed mRNA in the absence of chemical substance” value (yeast gene YOR020C)?
A: 1.7

Q: And the “The level of expressed mRNA in the presence of chemical substance/The level of expressed mRNA in the absence of chemical substance” value (yeast gene YOR037W)?
A: 2.5

Q: And the “The level of expressed mRNA in the presence of chemical substance/The level of expressed mRNA in the absence of chemical substance” value (yeast gene YOR100C)?
A: 1.6

Q: What about the “The level of expressed mRNA in the presence of chemical substance/The level of expressed mRNA in the absence of chemical substance” value (yeast gene YOR130C) of the same compound?
A: 1.3

Q: And the “The level of expressed mRNA in the presence of chemical substance/The level of expressed mRNA in the absence of chemical substance” value (yeast gene YOR142W)?
A: 1.0

Q: And the “The level of expressed mRNA in the presence of chemical substance/The level of expressed mRNA in the absence of chemical substance” value (yeast gene YOR150W)?
A: 1.2

Q: And the “The level of expressed mRNA in the presence of chemical substance/The level of expressed mRNA in the absence of chemical substance” value (yeast gene YOR176W)?
A: 0.5

Q: And the “The level of expressed mRNA in the presence of chemical substance/The level of expressed mRNA in the absence of chemical substance” value (yeast gene YOR187W)?
A: 1.5

Q: And the “The level of expressed mRNA in the presence of chemical substance/The level of expressed mRNA in the absence of chemical substance” value (yeast gene YOR316C)?
A: 1.4

Q: What about the “The level of expressed mRNA in the presence of chemical substance/The level of expressed mRNA in the absence of chemical substance” value (yeast gene YPL040C) of the same compound?
A: 0.8

Q: And the “The level of expressed mRNA in the presence of chemical substance/The level of expressed mRNA in the absence of chemical substance” value (yeast gene YPL134C)?
A: 1.2

Q: And the “The level of expressed mRNA in the presence of chemical substance/The level of expressed mRNA in the absence of chemical substance” value (yeast gene YPL135W)?
A: 1.2

Q: What about the “The level of expressed mRNA in the presence of chemical substance/The level of expressed mRNA in the absence of chemical substance” value (yeast gene YPL215W) of the same compound?
A: 0.7

Q: What about the “The level of expressed mRNA in the presence of chemical substance/The level of expressed mRNA in the absence of chemical substance” value (yeast gene YPL262W) of the same compound?
A: 1.3

Q: And the “The level of expressed mRNA in the presence of chemical substance/The level of expressed mRNA in the absence of chemical substance” value (yeast gene YPR024W)?
A: 1.4

Q: What about the “The level of expressed mRNA in the presence of chemical substance/The level of expressed mRNA in the absence of chemical substance” value (yeast gene YPR037C) of the same compound?
A: 1.2

Q: And the “The level of expressed mRNA in the presence of chemical substance/The level of expressed mRNA in the absence of chemical substance” value (yeast gene YPR047W)?
A: 1.8

Q: What about the “The level of expressed mRNA in the presence of chemical substance/The level of expressed mRNA in the absence of chemical substance” value (yeast gene YPR067W) of the same compound?
A: 1.5

Q: And the “The level of expressed mRNA in the presence of chemical substance/The level of expressed mRNA in the absence of chemical substance” value (yeast gene YPR134W)?
A: 1.5
